Reference: patent US12616698B2, “Methods for reducing liver fat and for treating fatty liver disorders” (Corcept Therapeutics Incorporated, priority 2021, dated 2026)
Marks after values point to notes of the source that are not given here.

Columns and labels:
[1] = tested on: patients presumed to have NASH; test: Phase 2a study in patients with presumed NASH: liver fat by MRI-PDFF; assay type: in vivo, human
Excerpt: A Phase 2a, randomized, double-blind, placebo-controlled study (ClinicalTrials.gov Identifier: NCT03823703) was begun to assess the efficacy of two dose levels of miricorilant versus placebo in reducing liver fat in patients who were presumed to have non-alcoholic steatohepatitis (NASH), that presumption based on blood tests and noninvasive measures. Written informed consent was obtained before initiating any study-mandated procedures. The full study was planned to enroll approximately 120 patients, randomized 1:1:1 to receive daily 900 mg miricorilant:600 mg miricorilant: matching placebo.
Patients enrolled in the study were required to have consistent liver enzyme (ALT and AST) baseline measurements (established by two samples obtained at least 4 weeks and no more than six months apart), and a diagnosis of presumed NASH with fibrosis defined as meeting all of the following criteria: • a. Either: i) a historical liver biopsy within 1 year of Screening showing NASH, NAFLD Activity Score (NAS) greater than or equal to 4, and F1 to F3 fibrosis, or ii) an AST level greater than 17 U/L for women or AST level greater than 20 U/L for men AND a FibroScan liver stiffness measurement of greater than or equal to 8.5 kPa and a Controlled Attenuation Parameter (CAP) of greater than or equal to 300 dB/m in the 3 months prior to Screening or at Screening; • b. A MRI-PDFF with greater than or equal to 10% steatosis; and • c. The presence of two or more components of metabolic syndrome: type 2 diabetes treatment or fasting blood glucose greater than or equal to 126 mg/dL, BMI greater than or equal to 30 kg/m^2, hypertension treatment or blood pressure greater than or equal to 130/85, history of dyslipidemia, or waist circumference greater than or equal to 102 cm (40 in) in men and greater than or equal to 88 cm (35 in) in women.
(§1) Measures of the effectiveness of miricorilant versus placebo in reducing liver fat were assessed by magnetic resonance imaging (MRI). The change from baseline MRI measurements relative to MRI measurements taken following a course of daily miricorilant or placebo administration were assessed by magnetic resonance imaging-proton density fat fraction (MRI-PDFF). Additionally, effects of miricorilant may be assessed by measuring one or more of the following, either by comparing change from baseline after one or more days of miricorilant administration, or by comparing measurements in patients administered miricorilant versus patients administered placebo: change in liver fat assessed by MRI-PDFF; change in AST, ALT, and gamma-glutamyl transferase (GGT); change in propeptide of type III collagen (pro-C3); change in enhanced liver fibrosis (ELF) score and its components (hyaluronic acid, tissue inhibitor of metalloproteinases-1 [TIMP-1], type III procollagen [PIIINP]); change in ACTH, serum cortisol, and serum aldosterone (pharmacodynamic assessments); change in Homeostatic Model Assessment of Insulin Resistance (HOMA-IR); change in absolute body weight; and other measurements. […] For patients with diabetes, change in HbA1c and change in fasting blood glucose may be measured to assess the effects of miricorilant. Change in blood pressure may be measured in patients with high blood pressure to assess the effects of miricorilant. Pharmacokinetic (PK) parameters were estimated from steady state plasma concentrations of miricorilant.
Patients were randomized in a 1:1:1 ratio to 600 mg miricorilant, 900 mg miricorilant, or placebo. Study drug was administered once daily, orally with 8 oz (240 mL) of water, along with food. Patients were instructed to take a total of 6 tablets at approximately the same time each day. Those in the 600 miricorilant group took 4 miricorilant tablets and 2 placebo tablets. Those in the 900 miricorilant group took 6 miricorilant tablets. Those in the placebo group took 6 placebo tablets. […]

[2] = tested on: patients presumed to have NASH; test: Phase 2a study: NASH biomarkers (pro-C3, ELF score and its components); assay type: in vivo, human; conditions: for Enhanced Liver Fibrosis (ELF) Score, Change from Baseline mean / Enhanced Liver Fibrosis (ELF) Score, Value mean: unitless
Procedure: as §1
NASH biomarkers include AST, ALT, GGT, pro-C3, ELF score and its components (hyaluronic acid, TIMP-1, PIIINP). Blood for measuring levels of AST, ALT, and GGT (as part of the chemistry panel) will be collected. Small fragments of collagen, called propeptides, are released during fibrosis. Pro-C3 is the propeptide of type III collagen and detection of pro-C3 is anticipated to reflect the formation of new fibrotic tissue in the liver (Vilar-Gomez and Chalasani 2018). Blood samples for measuring pro-C3 were collected. […] Each of these markers is measured by an immunoassay and an ELF score is generated, from which a level of fibrosis severity can be determined.
(Units are nanograms per milliliter (ng/mL) except for the enhanced liver fibrosis score (ELF), which is unitless.)

[3] = one patient, 600 mg per day, MRI-PDFF 26 days after cessation of study drug
[4] = patient 208-4020, 900 mg daily, 30 days on study drug, MRI 19 days after dose ended
[5] = patient 211-4002, 900 mg daily, 31 days on study drug, MRI 64 days after dose ended
[6] = patient 214-4007, 900 mg daily, 44 days on study drug, MRI 16 days after dose ended
[7] = patient 232-4016, 600 mg daily, 39 days on study drug, MRI 26 days after dose ended
[8] = patient 233-4018, 600 mg daily, 34 days on study drug, MRI 21 days after dose ended

Question: What does the source list for `O=c1[nH]c(=O)c(Cc2cccc(C(F)(F)F)c2)c([C@H]2CC[C@H](c3ccccc3)CC2)[nH]1` [miricorilant, (E)-6-(4-Phenylcyclohexyl)-5-(3-trifluoromethylbenzyl)-1H-pyrimidine-2,4-dione]?
Answer: Liver fat levels ([1]; 30 or 34 days of treatment, two of five patients administered miricorilant): normalized; Liver fat reductions ([1]; found in four patients (Table 3)): greater than 30%; Resolution of fatty liver (MRI-PDFF <5%) ([1]; one patient (233-4018, 600 mg) of the four with liver fat decreases): *complete resolution of fatty liver (MRI-PDFF <5%); MRI PDFF value increase as compared to baseline [1, 3]: 5; Relative increase in liver fat from baseline [1, 3]: 27.9%; % Change in liver fat [1, 4]: −65.3%; Change in MRI PDFF [1, 4]: −11.5; MRI PDFF value ([1]; patient 208-4020, 900 mg daily, 30 days on study drug, MRI 19 days after dose ended, screening value 17.6): 6.1; Relative change from baseline in % liver fat ([1]; patient 208-4020, 900 mg, 30 days on treatment): −65.3%; Liver fat Follow-up ([1]; patient 208-4020, 900 mg, 30 days on treatment, baseline 17.6): 6.1%; % Change in liver fat [1, 5]: −38.5%; Change in MRI PDFF [1, 5]: −10.7; MRI PDFF value ([1]; patient 211-4002, 900 mg daily, 31 days on study drug, MRI 64 days after dose ended, screening value 27.8): 17.1; Relative change from baseline in % liver fat ([1]; patient 211-4002, 900 mg, 31 days on treatment): −38.5%; Liver fat Follow-up ([1]; patient 211-4002, 900 mg, 31 days on treatment, baseline 27.8): 17.1%; % Change in liver fat [1, 6]: −47.0%; Change in MRI PDFF [1, 6]: −13.3; MRI PDFF value ([1]; patient 214-4007, 900 mg daily, 44 days on study drug, MRI 16 days after dose ended, screening value 28.3): 15.0; Relative change from baseline in % liver fat ([1]; patient 214-4007, 900 mg, 44 days on treatment): −47.0%; Liver fat Follow-up ([1]; patient 214-4007, 900 mg, 44 days on treatment, baseline 28.3): 15.0%; % Change in liver fat [1, 7]: +27.9%; Change in MRI PDFF [1, 7]: 5.0; MRI PDFF value ([1]; patient 232-4016, 600 mg daily, 39 days on study drug, MRI 26 days after dose ended, screening value 17.9): 22.9; % Change in liver fat [1, 8]: −73.8%; Change in MRI PDFF [1, 8]: −9.3; MRI PDFF value ([1]; patient 233-4018, 600 mg daily, 34 days on study drug, MRI 21 days after dose ended, screening value 12.6): 3.3; Relative change from baseline in % liver fat ([1]; patient 233-4018, 600 mg, 34 days on treatment): −73.8%; Liver fat Follow-up ([1]; patient 233-4018, 600 mg, 34 days on treatment, baseline 12.6): 3.3* %; Mean liver fat content after treatment (FIG. 3C) ([1]; patient with the greatest reduction, 600 mg daily, baseline 12.6%): 3.3%; Hyaluronic Acid, Change from Baseline mean ([2]; 600 mg Miricorilant (N = 5)): -17.8 ng/mL; Hyaluronic Acid, Value mean ([2]; 600 mg Miricorilant (N = 5)): 70.7 ng/mL; Propeptide of Type III Collagen (pro-C3), Change from Baseline mean ([2]; 600 mg Miricorilant (N = 5)): 0.5 ng/mL; Propeptide of Type III Collagen (pro-C3), Value mean ([2]; 600 mg Miricorilant (N = 5)): 10.7 ng/mL; Tissue Inhibitor of Metalloproteinases-1 (TIMP-1), Change from Baseline mean ([2]; 600 mg Miricorilant (N = 5)): 3.2 ng/mL; Tissue Inhibitor of Metalloproteinases-1 (TIMP-1), Value mean ([2]; 600 mg Miricorilant (N = 5)): 249.5 ng/mL; Type III Procollagen (PIIINP), Change from Baseline mean ([2]; 600 mg Miricorilant (N = 5)): -0.17 ng/mL; Type III Procollagen (PIIINP), Value mean ([2]; 600 mg Miricorilant (N = 5)): 9.3 ng/mL; Enhanced Liver Fibrosis (ELF) Score, Change from Baseline mean ([2]; 600 mg Miricorilant (N = 5)): −0.05; Enhanced Liver Fibrosis (ELF) Score, Value mean ([2]; 600 mg Miricorilant (N = 5)): 9.4; Hyaluronic Acid, Change from Baseline mean ([2]; 900 mg Miricorilant (N = 3)): -50.0 ng/mL; Hyaluronic Acid, Value mean ([2]; 900 mg Miricorilant (N = 3)): 110.9 ng/mL; Propeptide of Type III Collagen (pro-C3), Change from Baseline mean ([2]; 900 mg Miricorilant (N = 3)): -7.9 ng/mL; Propeptide of Type III Collagen (pro-C3), Value mean ([2]; 900 mg Miricorilant (N = 3)): 24.1 ng/mL; Tissue Inhibitor of Metalloproteinases-1 (TIMP-1), Change from Baseline mean ([2]; 900 mg Miricorilant (N = 3)): -79.4 ng/mL; Tissue Inhibitor of Metalloproteinases-1 (TIMP-1), Value mean ([2]; 900 mg Miricorilant (N = 3)): 402.1 ng/mL; Type III Procollagen (PIIINP), Change from Baseline mean ([2]; 900 mg Miricorilant (N = 3)): -5.35 ng/mL; Type III Procollagen (PIIINP), Value mean ([2]; 900 mg Miricorilant (N = 3)): 17.7 ng/mL; Enhanced Liver Fibrosis (ELF) Score, Change from Baseline mean ([2]; 900 mg Miricorilant (N = 3)): −0.90; Enhanced Liver Fibrosis (ELF) Score, Value mean ([2]; 900 mg Miricorilant (N = 3)): 10.6
